Measurements reported in ChEMBL document CHEMBL1201862, “PubChem BioAssay data set” (2004).
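Following 48 hours of exposure in 96-well plates, responses at five concentrations were used to interpolate endpoints linearly. The concentration for 50% growth inhibition is given as GI50.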 Active and inactive are the calls of the source. Rule as the data show it: active = GI50 up to about 1.1 µM and inactive = higher.

Tests used:
Test in all cases: NCI-60 cell line screen, 48 h
DLD-1 = tested on: DLD-1
DMS-114 = tested on: DMS-114
KM-20L2 = tested on: KM-20L2
LXFL 529 = tested on: LXFL 529
RXF 631 = tested on: RXF 631
SNB-78 = tested on: SNB-78
XF498 = tested on: XF498
BT-549 = tested on: BT-549
HOP-18 = tested on: HOP-18

OC1CCC[C@@H]1Sc1ccccc1 (stereo partly specified)
GI50 (DLD-1): > 100 µM (inactive)
GI50 (DMS-114): > 100 µM (inactive)
GI50 (KM-20L2): > 100 µM (inactive)
GI50 (LXFL 529): > 100 µM (inactive)
GI50 (RXF 631): > 100 µM (inactive)
GI50 (SNB-78): > 100 µM (inactive)
GI50 (XF498): > 100 µM (inactive)

Cn1c(=O)n(C2(C)C[Se]C2)c2ccccc21
GI50 (DLD-1): > 100 µM (inactive)
GI50 (KM-20L2): > 100 µM (inactive)
GI50 (LXFL 529): > 100 µM (inactive)
GI50 (SNB-78): > 100 µM (inactive)

CN1CCN(c2ccc3c(c2)NCC(=O)N3)CC1
GI50 (BT-549): > 100 µM (inactive)

O=C1c2cccnc2-c2nccc3c2c1nc1ccccc13 [ASCIDIDEMIN]
GI50 (BT-549): 0.169 µM (active)

Cc1cc(C)n(C(=O)C(C)Sc2nnc(SC(C)C(=O)n3nc(C)cc3C)s2)n1 (stereo unspecified)
GI50 (BT-549): > 100 µM (inactive)

CC(=O)c1ccc(NCN2C(=O)c3ccccc3C2=O)cc1
GI50 (BT-549): > 100 µM (inactive)

Cc1nc2ccccc2c(=O)n1/N=C(\N=N\c1ccccc1Cl)c1ccccc1Cl
GI50 (DLD-1): 67.5 µM (inactive)
GI50 (DMS-114): 26.4 µM (inactive)
GI50 (HOP-18): 28 µM (inactive)
GI50 (KM-20L2): 76.7 µM (inactive)
GI50 (LXFL 529): 52.1 µM (inactive)
GI50 (RXF 631): 88.9 µM (inactive)
GI50 (XF498): 11.9 µM (inactive)

CCc1nc2cc3cccnc3c(Cl)c2[nH]c1=O
GI50 (BT-549): 65.9 µM (inactive)

C=C1C(=O)O[C@@]23C1CC[C@@H](C)C2CC[C@@]1(C)OC31 (stereo partly specified)
GI50 (BT-549): 7.71 µM (inactive)

O=C(O)NC(c1ccccc1)C(NC(=O)c1ccccc1)c1ccccc1 (stereo unspecified)
GI50 (DLD-1): > 100 µM (inactive)
GI50 (DMS-114): > 100 µM (inactive)
GI50 (HOP-18): > 100 µM (inactive)
GI50 (KM-20L2): > 100 µM (inactive)
GI50 (SNB-78): > 100 µM (inactive)
GI50 (XF498): > 100 µM (inactive)

COc1ccc(Nc2nc(N)c(C(=O)c3cccs3)s2)cc1
GI50 (BT-549): 23.3 µM (inactive)

Cc1cc(N(CCC#N)CCC#N)ccc1C(/N=N/c1ccc(Cl)cc1)=N\NC(=O)c1ccccc1
GI50 (BT-549): 25.6 µM (inactive)

Nc1ccccc1NC(=O)c1ccc(CNC(=O)OCc2cccnc2)cc1 [ENTINOSTAT]
GI50 (BT-549): 3.5 µM (inactive)

N#C/C(=C\c1cc(F)cc(F)c1)c1ccccn1
GI50 (BT-549): 30.1 µM (inactive)

COc1cc2ccccc2c2cc([N+](=O)[O-])oc12
GI50 (BT-549): 1.64 µM (inactive)

Cc1nc2ccccc2n1Cc1nnc2n1N=C(c1ccccc1)CS2
GI50 (BT-549): 32.1 µM (inactive)

CC1CC(C)(O)CC(C(O)CC2CC(=O)NC(=O)C2)C1=O (stereo unspecified) [RESACTIN A]
GI50 (BT-549): 0.113 µM (active)

CN1C(C)(C)CC(=O)C(Br)C1(C)C (stereo unspecified)
GI50 (BT-549): > 100 µM (inactive)

CN(C)CCNC(=O)c1cccc2ccc(-c3ccc(Br)cc3)nc12
GI50 (DLD-1): 2.59 µM (inactive)
GI50 (DMS-114): 2.61 µM (inactive)
GI50 (HOP-18): 1.91 µM (inactive)
GI50 (KM-20L2): 1.78 µM (inactive)
GI50 (SNB-78): 8.87 µM (inactive)
GI50 (XF498): 2.16 µM (inactive)

COc1cc2c(cc1OC)C1C(O)C(OC)C(Br)C3(Br)CCN(C2)C13 (stereo unspecified)
GI50 (BT-549): > 100 µM (inactive)

COc1cc(/C=C2/C(=O)N(C(=O)c3ccc(Cl)cc3)N=C2C)cc(OC)c1OC
GI50 (DLD-1): > 100 µM (inactive)
GI50 (KM-20L2): > 100 µM (inactive)
GI50 (LXFL 529): > 100 µM (inactive)
GI50 (SNB-78): > 100 µM (inactive)
GI50 (XF498): > 100 µM (inactive)

CC(=O)O[C@H]1CC[C@H]2[C@@H]3CCC4=C/C(=N/OCCN(C)C)CC[C@]4(C)[C@H]3CC[C@]12C
GI50 (BT-549): 12.8 µM (inactive)

COC(O)C(=O)c1c2c(cc3c1CCC3)CCCC2 (stereo unspecified)
GI50 (BT-549): 2.39 µM (inactive)

Cc1ccc(CN2CCN(Cc3ccc(C)o3)C(C)C2)o1 (stereo unspecified)
GI50 (BT-549): > 100 µM (inactive)

O=C(NO)C(=O)Nc1ccc(Cl)cc1[N+](=O)[O-]
GI50 (DLD-1): > 100 µM (inactive)
GI50 (DMS-114): > 100 µM (inactive)
GI50 (HOP-18): > 100 µM (inactive)
GI50 (KM-20L2): > 100 µM (inactive)
GI50 (LXFL 529): > 100 µM (inactive)
GI50 (RXF 631): > 100 µM (inactive)
GI50 (SNB-78): > 100 µM (inactive)

C=C1C(=O)O[C@@H]2OC3(C)CCC4C(C)CCC1C42OO3 (stereo partly specified)
GI50 (DLD-1): 1.93 µM (inactive)
GI50 (HOP-18): 16.5 µM (inactive)
GI50 (XF498): 2.16 µM (inactive)

CCOC(=O)C(C(=O)OCC)P(=S)(S)c1ccccc1 (stereo unspecified)
GI50 (DLD-1): > 100 µM (inactive)
GI50 (DMS-114): > 100 µM (inactive)
GI50 (KM-20L2): > 100 µM (inactive)
GI50 (LXFL 529): > 100 µM (inactive)
GI50 (RXF 631): > 100 µM (inactive)
GI50 (XF498): > 100 µM (inactive)

COCC1OC(OC2C3=C(C(C)C)CCC3(C)/C=C3\C(CCC3(O)COC)C(C)C2O)C(O)C2OC3OC12OC3(C)C1CO1 (stereo unspecified)
GI50 (BT-549): 16.6 µM (inactive)

COc1ccc(/C(Cl)=C(\C=O)c2ccccc2)cc1OC
GI50 (DLD-1): 15.1 µM (inactive)
GI50 (DMS-114): 13.1 µM (inactive)
GI50 (HOP-18): 30.1 µM (inactive)
GI50 (KM-20L2): 44 µM (inactive)
GI50 (LXFL 529): 12.4 µM (inactive)
GI50 (SNB-78): 16.7 µM (inactive)

C=C1C(=O)O[C@H]2C/C(C=O)=C\[C@H]3O[C@H]3/C(COC(=O)C(C)C)=C/CC12 (stereo partly specified)
GI50 (BT-549): 12.2 µM (inactive)

CCN(CC)C(=O)CCN1CC1
GI50 (BT-549): > 10 µM (inactive)

COC1=C(N)C(=O)c2nc(C)ccc2C1=O
GI50 (DLD-1): 2.31 µM (inactive)
GI50 (DMS-114): 1.78 µM (inactive)
GI50 (HOP-18): 1.98 µM (inactive)
GI50 (KM-20L2): 2.3 µM (inactive)
GI50 (LXFL 529): 2.43 µM (inactive)
GI50 (SNB-78): 3.52 µM (inactive)
GI50 (XF498): 1.51 µM (inactive)

N#C/C(=C/c1ccc[nH]1)P(=O)(O)O
GI50 (DLD-1): > 100 µM (inactive)
GI50 (DMS-114): > 100 µM (inactive)
GI50 (KM-20L2): > 100 µM (inactive)
GI50 (LXFL 529): > 100 µM (inactive)
GI50 (SNB-78): > 100 µM (inactive)
GI50 (XF498): > 100 µM (inactive)
